We go through 11 compounds from ChEMBL document CHEMBL5729275 (2022).

pEC50: −log10 of the molar value. Bounds are passed on as bounds.

A short description of the experiment: RSV-A Assay : Hep-2 cells, (originally derived from tumors grown in irradiated-cortisonised weanling rats that had been injected with epidermoid carcinoma tissue from a person's larynx, but later found to be indistinguishable from HeLa cells by PCR DNA analysis), were used for the culturing of genotype A, “Long” strain RSV. Flasks were inoculated with RSV and viral stocks were collected once cytopathic effect (CPE) was greater than 90%. Viral stocks in 25% sucrose media were snap frozen using liquid nitrogen to increase viral stability. Viral stock titers were quantified by tissue culture infectious dose 50% (TCID50) using 8,000 cells per well and 3-fold viral dilutions across a 96-well plate, cultured for 4 days. Viral stock titers were also quantified by a plaque forming unit assay, as described elsewhere.Following extensive parameter testing, the final assay is run as follows: Hep-2 cells are seeded into the inner 60 wells of a 96-well plate at 8,000 cells per well in a volume of 50 μL using Growth Media (DMEM without phenol red, 1% L-Glut, 1% Penn/Strep, 1% nonessential amino acids, 10% heat-inactivated FBS). 2-fold serial dilutions of control and test compounds are added to the wells in duplicate in a total volume of 25 μL. Viral stock is then added to the wells at a multiplicity of infection (MOI) of 0.1 in a volume of 25 μL, bringing the total volume of each well to 100 μL. The MOI is calculated using the PFU/mL, or TCID50 if unavailable. Each 96-well plate has a control column of 6 wells with cells and virus but no compound (negative control, max CPE), a column with cells but no compound or virus (positive control, minimum CPE), and a column with no cells or virus or compound (background plate/reagent control). The control wells with cells but no virus are given an additional […], of growth media containing an equal quantity of sucrose as those wells receiving the viral stock in order to keep consistent in media and volume conditions. The outer wells of the plate are filled with 125 μL of moat media (DMEM, 1% Penn/Strep) to act as a thermal and evaporative moat around the test wells. Following a 5-day incubation period, the plates are read using ATPlite (50 uL added per well), which quantifies the amount of ATP (a measure of cell health) present in each well. Assay plates are read using the Envision luminometer.
For the compound `N[C@@]1(C(F)(F)F)COc2c1cc([C@@](O)(CNC(=O)c1cc(OC3CC3)c3c(ccc[n+]3[O-])c1)C1CC1)nc2-c1ccc(F)cc1`, the negative logarithm of the EC50 (pEC50) (as a rule, the EC50 on a negative log10 scale, so that one unit is a factor of ten) is less than 6.70. With `COc1cccc2cc(C(=O)NC[C@](O)(c3cc4c(c(-c5ccc(F)cc5)n3)OC[C@@]4(N)C(F)(F)F)C(F)(F)F)cnc12`, the pEC50 was less than 6.70.

For the compound `COc1cc(C(=O)NC[C@](O)(c2cc3c(c(-c4ccc(F)cc4)n2)OC[C@@]3(NC(=O)CO)C(F)(F)F)C(F)(F)F)ccc1OC1CC1`, the pEC50 was greater than 6.70. On to `C[C@](O)(CNC(=O)c1ccc(OC2CC2)c(OC2CC2)c1)c1cc2c(c(-c3ccc(F)c(F)c3)n1)OC[C@@]2(N)C(F)(F)F`, for which the negative logarithm of the EC50 (pEC50) is greater than 6.70. The same measure for `COc1cc(C(=O)NC[C@](C)(O)c2cc3c(c(-c4ccc(F)cc4)n2)OC[C@@]3(N)C(F)(F)F)cc2cccnc12`: greater than 6.70; for `N[C@@]1(C(F)(F)F)COc2c1cc([C@@](O)(CNC(=O)c1cc(OC3CC3)c3nn(C4CC4)cc3c1)C1CC1)nc2-c1ccc(F)c(Cl)c1`: greater than 6.70; for `N[C@@]1(C(F)(F)F)COc2c1cc([C@@](O)(CNC(=O)c1cc(OC3CC3)c3[nH]c(=O)ccc3c1)C1CC1)nc2-c1ccc(F)cc1`: less than 6.70. With `COc1cc(C(=O)NC[C@](O)(c2cc3c(c(-c4ccc(F)c(Cl)c4)n2)OC[C@@]3(N)C(F)(F)F)C2CC2)ccc1OC1CC1`, the pEC50 was greater than 6.70. For `COc1cc(C(=O)NC[C@H](O)c2cc3c(c(-c4ccc(F)cc4)n2)OC[C@@]3(N)C(F)(F)F)ccc1OC1CC1`, the negative logarithm of the EC50 (pEC50) is less than 6.70. The same measure for `COc1cc(C(=O)NC[C@](O)(c2cc3c(c(-c4ccc(F)cc4)n2)OC[C@@]3(N)C(F)(F)F)C2CC2)ccc1OC1CC1`: greater than 6.70; for `COc1cc(F)c(C(=O)NC[C@](O)(c2cc3c(c(-c4ccc(F)cc4)n2)OC[C@@]3(N)C(F)(F)F)C(F)(F)F)cc1OC`: less than 6.70.
